# Measured values published in US4997816A, “Induction of fertile ovulation in anoestruns mares” (The University of Melbourne, priority 1985, dated 1991).
# Several values for one entry are separate records, joined by “and”; a condition that tells them apart may be missing. Equal values may be shown once. Read-outs that look alike come from different tables or passages of the source.
# How the values were obtained:
# Type in all cases: in vivo, mare
# [1] = test system: mares in transitional anoestrus; experiment: Combined results, transitional anoestrus (1984 and 1985); details: 100 ng/kg/h
# Procedure: The experiment commenced on Sept. 10, 1984. Mares were randomised in pairs to a Treated group or a Control group until all the mares had been assigned to groups by Sept. 21. The mares were paired on the basis of each mare having approximately equal ovarian follicular activity. Each treated mare was weighted just prior to the experiment. The dose of GnRH (100 ng/kg/hr) to be administered over 28 days was calculated and dissolved in sterile, physiological (0.9%) saline. The solution was loaded into an OMP and placed in a beaker of saline at room temperature overnight to allow for the "start up time" of the OMP. The mares were divided into 2 groups. One group (n=g) was treated with an infusion of GnRH at a rate of 100 ng/kg/h delivered by subcutaneously implanted OMP for 28 days. The mares were run in paddocks during the experiment and brought into yards every 2 or 3 days, during which time oestrus detection was carried out. […] Blood samples were collected 3 times per week for determination of plasma LH and progesterone concentrations. Ultrasound echography was used to diagnose pregnancy 14 days after ovulation, and every 2 or 3 days thereafter until Day 45 of pregnancy, when the experiment was terminated.
# [2] = test system: maiden Standardbred mares in deep winter anoestrus; experiment: Example III: 28-day subcutaneous GnRH infusion by osmotic minipump, induction of ovulation (1985); details: for Proportion mares ovulating: deep anoestrus; for Proportion mares ovulating / Percentage mares ovulating: 1985
# From the text: Delivery of GnRH was achieved via osmotic minipumps (OMP; Alza Corp., Palo Alto, CA:). These pumps are constructed of a rigid, semi-permeable membrane, inside which is suspended a water-proof bag which is filled with the substance to be infused. The neck of the bag is open to the atmosphere. Between the bag and the membrane a special osmotic solution is held. This solution causes an influx of water through the semi-permeable membrane when the OMP is placed in the body of animals. The influx of water collapses the bag at a fixed rate and the substance contained in the bag is expelled from the OMP at a steady rate. […] Sixteen maiden Standardbred mares, 3 to 6 years of age were used in the experiment which was conducted during deep winter anoestrus in 1985. The mares were in good to excellent condition and were run in 2 outside paddocks during the period of the experiment. The mares were divided into 3 groups. Group C (n=5) were untreated and acted as a control group, while Group 50 (n=5) and Group 100 (n=6) received infusions of GnRH at rates of 50 ng/kg/h and 100 ng/kg/h, respectively. The GnRH was delivered via subcutaneously implanted OMP for 28 days, starting on July 2, 1985. Ovarian palpations and oestrus detection was carried out 3 times per week or daily when an ovarian follice of >3 cm diameter was detected.
# mares in deep anoestrus = experiment: Combined results, deep anoestrus (1984 and 1985); details: 1984 and 1985 combined
# Procedure: Fourteen Standardbred mares in deep anoestrus were divided into 3 groups. Group C (controls; n=5) received no treatment while Group 50 (n=5) and Group 100 (n=4) were given infusions of GnRH at rates of 50 ng/kg/h and 100 ng/kg/h respectively. The GnRH was administered via subcutaneously implanted osmotic minipumps (OMP) for 28 days. Blood samples were collected daily and ovarian palpation and oestrus detection was carried out 3 times per week or daily if a follicle >3.5 cm was detected. The mares were divided into 3 groups. Group C (n=5) were untreated and acted as a control group, while Group 50 (n=5) and Group 100 (n=6) received infusions of GnRH at rates of 50 ng/kg/h and 100 ng/kg/h, respectively. The GnRH was delivered via subcutaneously implanted OMP for 28 days, starting on July 2, 1985. Ovarian palpations and oestrus detection was carried out 3 times per week or daily when an ovarian follice of >3 cm diameter was detected.
# [3] = test system: Standardbred and Standardbred-type mares in transitional anoestrus
# From the text: Delivery of GnRH was achieved via osmotic minipumps (OMP; Alza Corp., Palo Alto, CA:). These pumps are constructed of a rigid, semi-permeable membrane, inside which is suspended a water-proof bag which is filled with the substance to be infused. The neck of the bag is open to the atmosphere. Between the bag and the membrane a special osmotic solution is held. This solution causes an influx of water through the semi-permeable membrane when the OMP is placed in the body of animals. The influx of water collapses the bag at a fixed rate and the substance contained in the bag is expelled from the OMP at a steady rate. […] Seventeen Standardbred and Standardbred-type mares 3 to 9 years of age were used in the experiment, which commenced on Oct. 2, 1985, when the mares were in transitional anoestrus. The mares were divided into 2 groups. One group (n=g) was treated with an infusion of GnRH at a rate of 100 ng/kg/h delivered by subcutaneously implanted OMP for 28 days. The mares were run in paddocks during the experiment and brought into yards every 2 or 3 days, during which time oestrus detection was carried out. […] Blood samples were collected 3 times per week for determination of plasma LH and progesterone concentrations. Ultrasound echography was used to diagnose pregnancy 14 days after ovulation, and every 2 or 3 days thereafter until Day 45 of pregnancy, when the experiment was terminated.
# [4] = test system: Standardbred mares in transitional or "shallow" anoestrus
# From the text: Delivery of GnRH was achieved via osmotic minipumps (OMP; Alza Corp., Palo Alto, CA:). These pumps are constructed of a rigid, semi-permeable membrane, inside which is suspended a water-proof bag which is filled with the substance to be infused. The neck of the bag is open to the atmosphere. Between the bag and the membrane a special osmotic solution is held. This solution causes an influx of water through the semi-permeable membrane when the OMP is placed in the body of animals. The influx of water collapses the bag at a fixed rate and the substance contained in the bag is expelled from the OMP at a steady rate. […] Ten young Standardbred mares of 3 to 5 years of age as judged by wear of the teeth were used in the experiment. During the experiment, the mares were fed hay twice daily and kept in a paddock. The mares were vaccinated against Tetanus and Strangles and were given regular anthelmintic and lice treatments. Their body condition during the experiment was good to very good. Ovarian palpations were carried out and blood was collected from the mares every 2 or 3 days for 4 weeks prior to commencement of the experiment. […] The experiment commenced on Sept. 10, 1984. Mares were randomised in pairs to a Treated group or a Control group until all the mares had been assigned to groups by Sept. 21. The mares were paired on the basis of each mare having approximately equal ovarian follicular activity. Each treated mare was weighted just prior to the experiment. The dose of GnRH (100 ng/kg/hr) to be administered over 28 days was calculated and dissolved in sterile, physiological (0.9%) saline. The solution was loaded into an OMP and placed in a beaker of saline at room temperature overnight to allow for the "start up time" of the OMP. The OMP were inserted subcutaneously in the side of the necks of the treated mares, under local infiltration anaesthesia. The pumps were retained using 1 or 2 mattress sutures in the skin. After insertion of the OMP, the treated and control mares were run as a group in a single paddock. Every 2 or 3 days the mares were brought into the yards. Ovarian palpations were carried out and blood samples were collected on these days. In addition, the mares were teased with a vigorous stallion, to detect oestrus. […] Blood samples were assayed for lutsinizing hormone (LH) and progesterone concentrations. Ultrasound echography was used to diagnose pregnancy 14 days after ovulation. Subsequent ultrasound examinations were made every 2 or 3 days until Day 45 of pregnancy, when the experiment was terminated.
# [5] = test system: Standardbred mares in deep anoestrus; details: for Proportion mares ovulating: deep anoestrus; for Proportion mares ovulating / Percentage mares ovulating: 1984
# From the text: Delivery of GnRH was achieved via osmotic minipumps (OMP; Alza Corp., Palo Alto, CA:). These pumps are constructed of a rigid, semi-permeable membrane, inside which is suspended a water-proof bag which is filled with the substance to be infused. The neck of the bag is open to the atmosphere. Between the bag and the membrane a special osmotic solution is held. This solution causes an influx of water through the semi-permeable membrane when the OMP is placed in the body of animals. The influx of water collapses the bag at a fixed rate and the substance contained in the bag is expelled from the OMP at a steady rate. […] Fourteen Standardbred mares in deep anoestrus were divided into 3 groups. Group C (controls; n=5) received no treatment while Group 50 (n=5) and Group 100 (n=4) were given infusions of GnRH at rates of 50 ng/kg/h and 100 ng/kg/h respectively. The GnRH was administered via subcutaneously implanted osmotic minipumps (OMP) for 28 days. Blood samples were collected daily and ovarian palpation and oestrus detection was carried out 3 times per week or daily if a follicle >3.5 cm was detected.
# [6] = Group 50, 50 ng/kg/h s.c. OMP 28 days
# [7] = Group 100, 100 ng/kg/h s.c. OMP 28 days
smiles,measurement,setting,value
"CC(C)C[C@H](NC(=O)CNC(=O)[C@H](Cc1ccc(O)cc1)NC(=O)[C@H](CO)NC(=O)[C@H](Cc1c[nH]c2ccccc12)NC(=O)[C@H](Cc1c[nH]cn1)NC(=O)[C@@H]1CCC(=O)N1)C(=O)N[C@@H](CCCNC(=N)N)C(=O)N1CCC[C@H]1C(=O)NCC(N)=O [GnRH, pGlu-His-Trp-Ser-Tyr-Gly-Leu-Arg-Pro-Gly-NH2]",Day of ovulation (x ± s.e.m.),"[1]; 1984 and 1985 combined, n=14, P < .001 compared to controls",18.6 ± 3.0
same,Day of conception (x ± s.e.m.),"[1]; 1984 and 1985 combined, n=14, P < .05 compared to controls",25.2 ± 6.0
same,Average day of ovulation earlier than the controls,[1]; data for the 2 years combined,approximately 23 days
same,Day of conception earlier than the controls,[1]; data for the 2 years combined,24 days
same,Average time from OMP insertion to ovulation,"[2]; Group 50, 50 ng/kg/h",24 days
same,Proportion mares ovulating,[2]; [6],1 of 5 and 1/5
same,Percentage mares ovulating,"[2]; Group 50, 50 ng/kg/h",20%
same,Average time from OMP insertion to ovulation,"[2]; Group 100, 100 ng/kg/h",21.8 days
same,Proportion mares ovulating,[2]; [7],4 of 6 and 4/6
same,Percentage mares ovulating,"[2]; Group 100, 100 ng/kg/h",67%
same,Percentage mares ovulating,"mares in deep anoestrus; Group 50, 50 ng/kg/h",30%
same,Proportion mares ovulating,"mares in deep anoestrus; Group 50, 50 ng/kg/h",3/10
same,Percentage mares ovulating,"mares in deep anoestrus; Group 100, 100 ng/kg/h",70%
same,Proportion mares ovulating,"mares in deep anoestrus; Group 100, 100 ng/kg/h, P < .01 vs controls",7/10
same,Treated mares that ovulated during the period the OMP were functional,"[3]; 100 ng/kg/h s.c. OMP 28 days, transitional anoestrus, 1985",Eight of 9
same,Average time (day) of ovulation from commencement of the experiment (x ± s.e.m.),"[3]; 100 ng/kg/h, 1985, n=9, P<0.05 vs controls",18.6 ± 4.3 days and 18.8 ± 4.3 days
same,Mares that failed to conceive,"[3]; 100 ng/kg/h, 1985, treated group",One
same,Average day of conception from commencement of the experiment (x ± s.e.m.),"[3]; 100 ng/kg/h, 1985, P<0.05 vs controls, one mare failed to conceive",24.4 ± 8.1 days
same,Treated mares that ovulated during GnRH infusion,"[4]; 100 ng/kg/hr s.c. OMP 28 days, transitional anoestrus, 1984",Four of the 5
same,Treated mares that conceived in association with the first ovulation after insertion of the OMP,"[4]; 100 ng/kg/hr, 1984",Four of the 5
same,Day of conception (x ± s.e.m.),"[4]; 100 ng/kg/hr, 1984, n=5, after OMP insertion, p<0.01 vs controls",26.6 ± 9.7 days and 26.6 days
same,Time (day) of ovulation from commencement of the experiment (x ± s.e.m.),"[4]; 100 ng/kg/hr, 1984, n=5, p<0.01 vs controls",18.6 ± 4.1 days and 18.6 days
same,Average time from OMP insertion to ovulation,"[5]; Group 50, 50 ng/kg/h",18.5 days
same,Proportion mares ovulating,[5]; [6],2 of 5 and 2/5
same,Percentage mares ovulating,"[5]; Group 50, 50 ng/kg/h",40%
same,Average time from OMP insertion to ovulation,"[5]; Group 100, 100 ng/kg/h",17.3 days
same,Proportion mares ovulating,[5]; [7],3 of 4 and 3/4
same,Percentage mares ovulating,"[5]; Group 100, 100 ng/kg/h",75%
same,Mean LH pulse frequency,"[5]; Group 100 compared to controls, Day 21",significantly (<0.05) higher
same,LH pulse amplitude,"[5]; between the 3 groups, any of the days studied",no statistical difference
same,LH pulse frequency,"[5]; between the groups, Day 28",no difference
same,Mean daily plasma LH concentrations,[5]; both treated groups (50 and 100 ng/kg/h) compared to control mares,higher
same,LH pulse frequency,"[5]; both treated groups compared to controls, within 7 days of insertion of OMP",significantly (p<0.05) higher
